Test results taken from PubChem BioAssay AID1259338 (Broad Institute, 2017).
Active and inactive are the calls of the source.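 The calls were made as follows: active = compounds lowering the signal with a fitted AC50 at or below a set concentration limit; inconclusive = flat curve with 30 to 70% inhibition, or a poor fit; inactive = the rest.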

Biological target: Caspase recruitment domain-containing protein 9 (Homo sapiens) + E3 ubiquitin-protein ligase TRIM62 (Homo sapiens) (UniProt Q9H257+Q9BVG3)
Sequence (Q9BVG3 whole entry, looked up, the tested form may be a part): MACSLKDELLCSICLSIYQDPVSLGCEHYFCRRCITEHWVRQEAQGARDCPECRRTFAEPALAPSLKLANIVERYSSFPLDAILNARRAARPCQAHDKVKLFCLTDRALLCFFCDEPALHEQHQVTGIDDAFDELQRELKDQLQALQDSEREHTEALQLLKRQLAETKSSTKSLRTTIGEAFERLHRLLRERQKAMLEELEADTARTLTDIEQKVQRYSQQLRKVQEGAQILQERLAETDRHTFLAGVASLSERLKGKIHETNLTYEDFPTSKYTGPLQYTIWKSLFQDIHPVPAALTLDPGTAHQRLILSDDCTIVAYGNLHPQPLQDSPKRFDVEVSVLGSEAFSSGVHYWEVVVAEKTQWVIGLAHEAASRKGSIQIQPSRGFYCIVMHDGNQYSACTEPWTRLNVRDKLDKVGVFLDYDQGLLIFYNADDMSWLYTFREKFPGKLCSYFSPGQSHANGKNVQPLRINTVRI
Sequence (Q9H257 whole entry, looked up, the tested form may be a part): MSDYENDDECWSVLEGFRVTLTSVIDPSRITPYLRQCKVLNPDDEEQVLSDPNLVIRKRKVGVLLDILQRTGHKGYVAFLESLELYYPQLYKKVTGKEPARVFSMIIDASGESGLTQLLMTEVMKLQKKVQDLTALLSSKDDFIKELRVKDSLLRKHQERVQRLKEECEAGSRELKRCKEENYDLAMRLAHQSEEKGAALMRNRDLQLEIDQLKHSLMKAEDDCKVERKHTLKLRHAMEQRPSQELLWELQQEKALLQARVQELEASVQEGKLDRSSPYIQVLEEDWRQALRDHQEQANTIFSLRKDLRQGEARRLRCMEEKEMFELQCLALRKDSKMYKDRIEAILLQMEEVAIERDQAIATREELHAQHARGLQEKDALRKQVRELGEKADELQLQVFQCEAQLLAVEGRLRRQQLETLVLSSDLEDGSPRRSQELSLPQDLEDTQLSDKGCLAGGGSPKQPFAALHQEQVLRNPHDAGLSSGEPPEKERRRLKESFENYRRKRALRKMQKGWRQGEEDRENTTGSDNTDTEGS
Experiment: CARD9/TRIM62 protein interaction inhibitors – cell lysate, HEK293FT lysates, Luminex bead readout, dose response (AID 1259338); as to activity change, negative = inhibition: reference of the scale not given here
Conditions: Luminex bead PPI, MFI; for activity change, negative = inhibition: at 80 µM (top of the series)

Row | activity change, negative = inhibition | AC50 | SMILES
1 | inactive |  | Cc1ccc(Cc2cnc(N)s2)o1
2 | inactive |  | COc1ccc(CNC(=O)c2nc(Nc3ccc(C)cc3)c3ccccc3n2)cc1
3 |  | > 160 µM (inactive) | O=C(Nc1nccs1)c1cc(-c2ccccn2)nc2c(Cl)cccc12
